Like-named read-outs stand apart in the source and are kept apart here.
Tests used:
[1] = system: L 5178 Y Maus-Lyphom Zellen; experiment: Nucleus size after cell lysis and propidium iodide staining (impulse cytophotometer); assay type: cell-based
From the text: (§1) HMT wurde zu den Kulturen in verschiedenen Konzentrationen während einer Zeitspanne von 24 Std. zugegeben. Die Populationen und das Zellvolumen wurden mit einem Zytokombgerät (System Michaelis, Mainz) entsprechend dem Coulter Counter-Prinzip bestimmt. Nach der Zellolyse mit 35 mmol/l Natriumzitrat und 0,5% Triton X 100 (Herstellerin Sigma Chemie, München), RNAse Behandlung und […] mit Propidiumjodid wurde die Kerngröße mit Hilfe eines Impulszytofotometers (FACS analizer) Firma Becton and Dickinson) gemessen.
Die Zellkulturen wurden wie unter Beispiel 1 beschrieben behandelt. Bei der Bewertung der Nucleusgröße wurde als Kontrolle die Verteilung der Kerngröße bei unbehandelten Zellen zugrunde gelegt.

[2] = system: L 5178 Y Maus-Lyphom Zellen; experiment: Inhibition of cell growth in L 5178 Y cell culture (Coulter counter principle); assay type: cell-based
From the text: as §1, with “Die L 5178 Y Maus-Lyphom Zellen wurden in einem MEM-Spinner Medium mit 10 mmol/l HEPES Puffer, 10% fötalem Kalbserum und 100.000 Einheiten/l Penicillin/Steptomycin (Herstellerin Biocrom, Berlin) kultiviert. Bei Kultivierungsstart lagen 100.000 Zellen/ml Kulturmedium vor, wobei sich 60% der Zellen in der S-Phase befanden. HMT” for “HMT”

reversen Transkriptase = experiment: Activity of reverse transcriptase in the cell nucleus; assay type: cell-based; conditions: no method or concentration given
[3] = system: L 5178 Y Maus-Lyphom Zellen; experiment: Change of cell volume in L 5178 Y cell culture (Coulter counter principle); assay type: cell-based
From the text: as §1, with “Die L 5178 Y Maus-Lyphom Zellen wurden in einem MEM-Spinner Medium mit 10 mmol/l HEPES Puffer, 10% fötalem Kalbserum und 100.000 Einheiten/l Penicillin/Steptomycin (Herstellerin Biocrom, Berlin) kultiviert. Bei Kultivierungsstart lagen 100.000 Zellen/ml Kulturmedium vor, wobei sich 60% der Zellen in der S-Phase befanden. HMT” for “HMT”

DNA-Polymerasen = experiment: Activity of DNA polymerases in the cell nucleus; assay type: cell-based; conditions: no method or concentration given
[4] = cited from earlier work

Compound: C1N2CN3CN1CN(C2)C3 [HMT, Methenamine]
- Anzahl der Kerne mit reduzierter Nucleusgröße (%) ([1]; 0,1 mg HMT/ml Kulturvolumen, kernfragmente): 79,9 (kernfragmente) %
- Anzahl der Kerne mit reduzierter Nucleusgröße (%) ([1]; 0,02 mg HMT/ml Kulturvolumen, Kernfragmente): 1,0 (Kernfragmente) %
- Anzahl der Kerne mit reduzierter Nucleusgröße (%) ([1]; 0,2 mg HMT/ml Kulturvolumen, Kernfragmente): 81,3 (Kernfragmente) %
- Anzahl der Kerne mit reduzierter Nucleusgröße (%) ([1]; 0,05 mg HMT/ml Kulturvolumen, Kernfragmente): 25,1 (Kernfragmente) %
- Anzahl der Kerne mit reduzierter Nucleusgröße (%) ([1]; 2 x 10⁻² mg HMT/ml Kulturvolumen): 6,05+2,07%
- Anzahl der Kerne mit reduzierter Nucleusgröße (%) ([1]; 2 x 10⁻³ mg HMT/ml Kulturvolumen): 19,62±3,89%
- Anzahl der Kerne mit reduzierter Nucleusgröße (%) ([1]; 2 x 10⁻¹² mg HMT/ml Kulturvolumen): 25,77±4,29%
- Anzahl der Kerne mit reduzierter Nucleusgröße (%) ([1]; 2 x 10⁻¹¹ mg HMT/ml Kulturvolumen): 27,17±4,13%
- Anzahl der Kerne mit reduzierter Nucleusgröße (%) ([1]; 2 x 10⁻⁴ mg HMT/ml Kulturvolumen): 13,41±3,71%
- Anzahl der Kerne mit reduzierter Nucleusgröße (%) ([1]; 2 x 10⁻⁵ mg HMT/ml Kulturvolumen): 11,14±3,60%
- Anzahl der Kerne mit reduzierter Nucleusgröße (%) ([1]; 2 x 10⁻⁶ mg HMT/ml Kulturvolumen): 4,50±2,92%
- Anzahl der Kerne mit reduzierter Nucleusgröße (%) ([1]; 2 x 10⁻⁷ mg HMT/ml Kulturvolumen): 1,11±0,58%
- Anzahl der Kerne mit reduzierter Nucleusgröße (%) ([1]; 2 x 10⁻⁸ mg HMT/ml Kulturvolumen): 20,86±4,07%
- Anzahl der Kerne mit reduzierter Nucleusgröße (%) ([1]; 5 x 10⁻² mg HMT/ml Kulturvolumen): 4,87±91,93%
- Kerne größenreduziert im Vergleich zu den Kontrollen ([1]; range of normal cell volume, 10⁻⁴- 10⁻¹² mg HMT/ml Kulturvolumen): 25%
- activity at 100 µg/mL ([2]; Mus musculus, L5178Y, 24 h, 0,1 mg HMT/ml Kulturvolumen, 24 Std., Kontrolle = 100, read-out: Zellwachstum (%)): 8%
- activity at 20 µg/mL ([2]; Mus musculus, L5178Y, 24 h, 0,02 mg HMT/ml Kulturvolumen, 24 Std., Kontrolle = 100, read-out: Zellwachstum (%)): 61%
- activity at 200 µg/mL ([2]; Mus musculus, L5178Y, 24 h, 0,2 mg HMT/ml Kulturvolumen, 24 Std., Kontrolle = 100, read-out: Zellwachstum (%)): 6%
- activity at 50 µg/mL ([2]; Mus musculus, L5178Y, 24 h, 0,05 mg HMT/ml Kulturvolumen, 24 Std., Kontrolle = 100, read-out: Zellwachstum (%)): 35%
- Zellwachstum ([2]; from a concentration of 1 x 10⁻³ mg/ml HMT downwards): nicht mehr statistisch signifikant beeinflußt
- Aktivitäten der reversen Transkriptase im Zellkern (reversen Transkriptase): beeinträchtigt
- Zellvolumen (µm³) ([3]; 0,1 mg HMT/ml Kulturvolumen, Zellfragmente, Mittelwert): 339,06 µm³
- Zellvolumen (µm³) ([3]; 0,2 mg HMT/ml Kulturvolumen, Zellfragmente, Mittelwert): 323,75 µm³
- Zellvolumen (µm³) ([3]; 1 x 10⁻² mg HMT/ml Kulturvolumen, Kontrolle 1470,66±390,71): 1540,82±401,32 µm³
- Zellvolumen (µm³) ([3]; 1 x 10⁻³ mg HMT/ml Kulturvolumen, Kontrolle 1470,66±390,71): 1422,27±398,09 µm³
- Zellvolumen (µm³) ([3]; 2 x 10⁻² mg HMT/ml Kulturvolumen, Kontrolle 1470,66±390,71): 1718,16±487,10 µm³
- Zellvolumen (µm³) ([3]; 2 x 10⁻³ mg HMT/ml Kulturvolumen, Kontrolle 1470,66±390,71): 1479,35±387,79 µm³
- Zellvolumen (µm³) ([3]; 2 x 10⁻¹² mg HMT/ml Kulturvolumen, Kontrolle 1470,66±390,71): 1411,23±395,92 µm³
- Zellvolumen (µm³) ([3]; 2 x 10⁻¹¹ mg HMT/ml Kulturvolumen, Kontrolle 1470,66±390,71): 1484,77±412,43 µm³
- Zellvolumen (µm³) ([3]; 2 x 10⁻⁴ mg HMT/ml Kulturvolumen, Kontrolle 1470,66±390,71): 1365,68±371,21 µm³
- Zellvolumen (µm³) ([3]; 2 x 10⁻⁵ mg HMT/ml Kulturvolumen, Kontrolle 1470,66±390,71): 1289,92±350,94 µm³
- Zellvolumen (µm³) ([3]; 2 x 10⁻⁶ mg HMT/ml Kulturvolumen, Kontrolle 1470,66±390,71): 1295,17±379,65 µm³
- Zellvolumen (µm³) ([3]; 2 x 10⁻⁷ mg HMT/ml Kulturvolumen, Kontrolle 1470,66±390,71): 1279,94±388,43 µm³
- Zellvolumen (µm³) ([3]; 2 x 10⁻⁸ mg HMT/ml Kulturvolumen, Kontrolle 1470,66±390,71): 1291,81±410,11 µm³
- Zellvolumen (µm³) ([3]; 2 x 10⁻⁹ mg HMT/ml Kulturvolumen, Kontrolle 1470,66±390,71): 1292,70±398,55 µm³
- Zellvolumen (µm³) ([3]; 5 x 10⁻² mg HMT/ml Kulturvolumen, Kontrolle 1470,66±390,71): 1736,76±438,98 µm³
- Zellvolumen ([3]; between 10⁻⁴ - 10⁻¹² mg/ml Kulturvolumen): korrespondiert das Zellvolumen mit dem Zellvolumen der Kontrollen
- Aktivitäten der DNA-Polymerasen im Zellkern (DNA-Polymerasen): beeinträchtigt
- dissoziiert in Formaldehyd und Ammoniumionen ([4]; pH 5): 20%
- dissoziiert in Formaldehyd und Ammoniumionen ([4]; pH 6): 6%

Compound: N.N.[Cl][Pt][Cl] [Cisplatin]
- Anzahl der Kerne mit reduzierter Nucleusgröße (%) ([1]; Cisplatin 0,5 x 10⁻⁵ g/ml Kulturvolumen): 43,51±5,62%
- Anzahl der Kerne mit reduzierter Nucleusgröße (%) ([1]; Cisplatin 0,5 x 10⁻⁶ g/ml Kulturvolumen): 6,97±2,81%
- Anzahl der Kerne mit reduzierter Nucleusgröße (%) ([1]; Cisplatin 1,0 x 10⁻⁶ g/ml Kulturvolumen): 9,95±3,13%
- Anzahl der Kerne mit reduzierter Nucleusgröße (%) ([1]; Cisplatin 1,0 x 10⁻⁷ g/ml Kulturvolumen): 4,07±2,24%
- Anzahl der Kerne mit reduzierter Nucleusgröße (%) ([1]; Cisplatin 2,0 x 10⁻⁶ g/ml Kulturvolumen): 18,62±4,08%

Reference: patent publication EP0425840A2, “Use of methenamine in the treatment of viral diseases and malign neoplasies” (Jaeger, Karl-Heinz, Dr. med., priority 1989, dated 1991)
